Experimental findings from ChEMBL document CHEMBL2074245, “Valacyclovir: a substrate for the intestinal and renal peptide transporters PEPT1 and PEPT2” (Biochem Biophys Res Commun, 1998) are described below.

Type in all cases: functional, cell-based
Data set [1] has as its target T1, Solute carrier family 15 member 1 (Homo sapiens, UniProt P46059).
T1 sequence (P46059 whole entry): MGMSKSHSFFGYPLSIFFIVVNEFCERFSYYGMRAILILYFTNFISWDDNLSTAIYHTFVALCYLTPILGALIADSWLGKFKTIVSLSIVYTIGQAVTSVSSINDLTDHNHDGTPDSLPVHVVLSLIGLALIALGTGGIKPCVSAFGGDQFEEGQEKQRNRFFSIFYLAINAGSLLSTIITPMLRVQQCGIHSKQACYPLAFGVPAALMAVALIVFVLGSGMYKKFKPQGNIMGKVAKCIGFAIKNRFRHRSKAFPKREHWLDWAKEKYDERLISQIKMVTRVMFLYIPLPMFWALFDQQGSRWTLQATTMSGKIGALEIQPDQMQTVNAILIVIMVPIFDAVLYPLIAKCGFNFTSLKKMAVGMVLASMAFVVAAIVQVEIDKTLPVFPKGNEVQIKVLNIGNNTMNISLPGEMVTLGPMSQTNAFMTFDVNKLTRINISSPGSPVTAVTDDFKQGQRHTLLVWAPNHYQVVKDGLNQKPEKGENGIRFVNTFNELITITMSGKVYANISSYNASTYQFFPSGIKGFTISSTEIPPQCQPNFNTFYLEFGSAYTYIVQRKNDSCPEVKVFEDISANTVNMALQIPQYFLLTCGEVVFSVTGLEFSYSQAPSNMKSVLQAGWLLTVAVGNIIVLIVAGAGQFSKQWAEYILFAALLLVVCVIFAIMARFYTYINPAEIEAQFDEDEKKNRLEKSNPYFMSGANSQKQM
Briefly: TP_TRANSPORTER: inhibition of Gly-Sar uptake in Caco-2 cells.

The target in data set [2] is T2, Solute carrier family 15 member 2 (Rattus norvegicus, UniProt Q63424).
T2 sequence (Q63424 whole entry): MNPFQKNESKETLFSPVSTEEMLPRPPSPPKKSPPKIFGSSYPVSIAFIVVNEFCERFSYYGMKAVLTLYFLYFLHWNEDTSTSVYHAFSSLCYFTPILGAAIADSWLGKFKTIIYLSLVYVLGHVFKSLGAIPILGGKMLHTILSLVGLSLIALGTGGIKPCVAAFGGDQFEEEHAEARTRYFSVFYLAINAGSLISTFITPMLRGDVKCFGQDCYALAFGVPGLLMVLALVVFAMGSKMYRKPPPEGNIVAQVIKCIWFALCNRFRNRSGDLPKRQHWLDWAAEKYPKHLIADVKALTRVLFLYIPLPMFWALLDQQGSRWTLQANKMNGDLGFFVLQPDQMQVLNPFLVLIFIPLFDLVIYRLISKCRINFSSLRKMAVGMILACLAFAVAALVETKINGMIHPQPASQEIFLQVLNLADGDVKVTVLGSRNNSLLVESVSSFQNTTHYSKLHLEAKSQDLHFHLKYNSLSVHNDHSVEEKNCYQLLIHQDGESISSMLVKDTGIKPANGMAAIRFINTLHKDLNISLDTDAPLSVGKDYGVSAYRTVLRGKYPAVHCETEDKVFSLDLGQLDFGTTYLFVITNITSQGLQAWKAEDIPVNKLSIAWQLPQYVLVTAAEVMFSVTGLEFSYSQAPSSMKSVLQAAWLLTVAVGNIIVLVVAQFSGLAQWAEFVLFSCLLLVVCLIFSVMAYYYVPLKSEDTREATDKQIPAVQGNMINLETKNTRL
Briefly: TP_TRANSPORTER: inhibition of Gly-Sar uptake in PEPT2-expressing HeLa cells.

The target of data set [3] is T1, Solute carrier family 15 member 1. Briefly: TP_TRANSPORTER: inhibition of Gly-Sar uptake in PEPT1-expressing HeLa cells.
The target in data set [4] is T2, Solute carrier family 15 member 2. Briefly: TP_TRANSPORTER: inhibition of Gly-Sar uptake in SKPT cells.
Substrate in data set [5]: CN(CC(=O)O)C(=O)CN
Briefly: TP_TRANSPORTER: uptake in PEPT2-expressing HeLa cells.

Substrate in data set [6]: CN(CC(=O)O)C(=O)CN
Briefly: TP_TRANSPORTER: uptake in SKPT cells.

Substrate in data set [7]: CN(CC(=O)O)C(=O)CN
Briefly: TP_TRANSPORTER: uptake in PEPT1-expressing HeLa cells.

Substrate in data set [8]: CN(CC(=O)O)C(=O)CN
Briefly: TP_TRANSPORTER: uptake in Caco-2 cells.

As to `CC(C)[C@H](N)C(=O)OCCOCn1cnc2c(=O)[nH]c(N)nc21` [VALACYCLOVIR], the Ki amounted to 490 µM in data set [1], 390 µM in data set [2], 740 µM in data set [3] and 170 µM in data set [4].

B1: Solute carrier family 15 member 2 (Rattus norvegicus), Q63424 (protein)
chain: MNPFQKNESKETLFSPVSTEEMLPRPPSPPKKSPPKIFGSSYPVSIAFIVVNEFCERFSYYGMKAVLTLYFLYFLHWNEDTSTSVYHAFSSLCYFTPILGAAIADSWLGKFKTIIYLSLVYVLGHVFKSLGAIPILGGKMLHTILSLVGLSLIALGTGGIKPCVAAFGGDQFEEEHAEARTRYFSVFYLAINAGSLISTFITPMLRGDVKCFGQDCYALAFGVPGLLMVLALVVFAMGSKMYRKPPPEGNIVAQVIKCIWFALCNRFRNRSGDLPKRQHWLDWAAEKYPKHLIADVKALTRVLFLYIPLPMFWALLDQQGSRWTLQANKMNGDLGFFVLQPDQMQVLNPFLVLIFIPLFDLVIYRLISKCRINFSSLRKMAVGMILACLAFAVAALVETKINGMIHPQPASQEIFLQVLNLADGDVKVTVLGSRNNSLLVESVSSFQNTTHYSKLHLEAKSQDLHFHLKYNSLSVHNDHSVEEKNCYQLLIHQDGESISSMLVKDTGIKPANGMAAIRFINTLHKDLNISLDTDAPLSVGKDYGVSAYRTVLRGKYPAVHCETEDKVFSLDLGQLDFGTTYLFVITNITSQGLQAWKAEDIPVNKLSIAWQLPQYVLVTAAEVMFSVTGLEFSYSQAPSSMKSVLQAAWLLTVAVGNIIVLVVAQFSGLAQWAEFVLFSCLLLVVCLIFSVMAYYYVPLKSEDTREATDKQIPAVQGNMINLETKNTRL
Regarding B1, the Km in data set [5] was determined as 70 µM; in data set [6], 67 µM.

B2: Solute carrier family 15 member 1 (Homo sapiens), P46059 (protein)
chain: MGMSKSHSFFGYPLSIFFIVVNEFCERFSYYGMRAILILYFTNFISWDDNLSTAIYHTFVALCYLTPILGALIADSWLGKFKTIVSLSIVYTIGQAVTSVSSINDLTDHNHDGTPDSLPVHVVLSLIGLALIALGTGGIKPCVSAFGGDQFEEGQEKQRNRFFSIFYLAINAGSLLSTIITPMLRVQQCGIHSKQACYPLAFGVPAALMAVALIVFVLGSGMYKKFKPQGNIMGKVAKCIGFAIKNRFRHRSKAFPKREHWLDWAKEKYDERLISQIKMVTRVMFLYIPLPMFWALFDQQGSRWTLQATTMSGKIGALEIQPDQMQTVNAILIVIMVPIFDAVLYPLIAKCGFNFTSLKKMAVGMVLASMAFVVAAIVQVEIDKTLPVFPKGNEVQIKVLNIGNNTMNISLPGEMVTLGPMSQTNAFMTFDVNKLTRINISSPGSPVTAVTDDFKQGQRHTLLVWAPNHYQVVKDGLNQKPEKGENGIRFVNTFNELITITMSGKVYANISSYNASTYQFFPSGIKGFTISSTEIPPQCQPNFNTFYLEFGSAYTYIVQRKNDSCPEVKVFEDISANTVNMALQIPQYFLLTCGEVVFSVTGLEFSYSQAPSNMKSVLQAGWLLTVAVGNIIVLIVAGAGQFSKQWAEYILFAALLLVVCVIFAIMARFYTYINPAEIEAQFDEDEKKNRLEKSNPYFMSGANSQKQM
Turning to B2, the Km is 450 µM in data set [7] and 510 µM in data set [8].

The term Ki denotes a measure of affinity in units of concentration, obtained from inhibition or displacement. The term Km denotes the concentration of substrate that gives half-maximal velocity.
